Results on one compound are retold here after patent US20140023611A1 (priority 2010, published 2014).

SMILES strings stand for the structures.

The nature of this data set: Stability of compounds in simulated gastric and intestinal fluid. In kind it is in vitro ADME. To be noted: Structure (V) examples, Table 3, 3 hr. On the procedure: Test compounds were incubated at 1-20 μM in simulated gastric fluid (SGF; standard USP solution with 3 mg/mL pepsin) or simulated intestinal fluid (SIF; standard USP solution with 3 mg/mL pancreatin) for 3 hr or 6 hr. HPLC-UV or HPLC-MS were used to determine test compound levels using peak area %. Results (Table 5) were reported as the percentage of test compound remaining after incubation in a given condition relative to test compound present at t=0 in the same condition.
Test compounds were incubated at 1-20 μM in simulated gastric fluid (SGF; standard USP solution with 3 mg/mL pepsin) or simulated intestinal fluid (SIF; standard USP solution with 3 mg/mL pancreatin) for 3 hr. HPLC-UV or HPLC-MS were used to determine test compound levels using peak area %. Results (Table 3) were reported as the percentage of test compound remaining after incubation in a given condition relative to test compound present at t=0 in the same condition.

For `COCCNC(=O)CCSCc1cccc(C(=O)Nc2ccc(N3CCCCC3)cc2C(=O)N/N=C/c2ccc(Cl)c(C(F)(F)F)c2)c1` [Ex. 49, (E)-N-(2-(2-(4-chloro-3-(trifluoromethyl)benzylidene)hydrazinecarbonyl)-4-(piperidin-1-yl)phenyl)-3-((3-(2-methoxyethylamino)-3-oxopropylthio)methyl)benzamide], where the note is “simulated gastric fluid”, the “% remaining, SGF” value is 21%. The “% remaining, SIF” value (simulated intestinal fluid) is on record as 89%.
